# According to patent US7691416B2, “Methods of treating vascular disease” (priority 2002, dated 2010):
# Experiments:
# [1] = tested on: intimal hyperplasia after balloon injury of the carotid artery; assay: Balloon injury model of the carotid artery; type: in vivo, rat; conditions: NO 250 ppm; one hour pre-treatment
# Source text: (§1) Animals. Male (250-350 g) Brown Norway rats (RT1^n) were used as aortic graft donors and male (250-350 g) Lewis rats (RT11) as recipients. Dawley (400-450 g) rats were used in the balloon injury model. Adult male C57BL/6, C57/S129, p21^−/− and p53^−/− null mice were purchased from Jackson Laboratory (Bar Harbor, Me.). mkk3^(−/−) null mice were generated as described Lu et al. (EMBO. 18:1845-1857 (1999)). The inos^−/− and enos^−/− mice were bred at the University of Pittsburgh. Aortic transplant model. Aortic transplantation was performed as described in Shimizu et al. (Nat. Med. 7:738-741 (2001)). Briefly, 3 to 4 cm of descending aorta was harvested from the donor and implanted between the renal arteries and the aortic bifurcation of the recipient. Both edges of the native abdominal aorta were ligated. Balloon injury model. Balloon angioplasty was carried out as described in Murakami et al. (Atherosclerosis 157:361-368 (2001)). […] [^3H]thymidine incorporation was measured by scintillation spectroscopy and presented as mean counts/min/well. […] Areas from eight to ten captured images were calculated using digital imaging software as number of pixels corresponding to those areas. Twenty-four to forty-eight sections from each group were statistically analyzed with SPSS software version 10. […]
# [2] = Nitric oxide exposure of rats before balloon angioplasty; type: in vivo, rat; conditions: NO administered at 500 ppm, 1 hour
# Source text: as §1
# mouse SMC = assay: SMC proliferation, [3H]thymidine incorporation; type: cell-based
# Source text: (§2) Animals. Male (250-350 g) Brown Norway rats (RT1^n) were used as aortic graft donors and male (250-350 g) Lewis rats (RT11) as recipients. Dawley (400-450 g) rats were used in the balloon injury model. Adult male C57BL/6, C57/S129, p21^−/− and p53^−/− null mice were purchased from Jackson Laboratory (Bar Harbor, Me.). mkk3^(−/−) null mice were generated as described Lu et al. (EMBO. 18:1845-1857 (1999)). The inos^−/− and enos^−/− mice were bred at the University of Pittsburgh. Aortic transplant model. Aortic transplantation was performed as described in Shimizu et al. (Nat. Med. 7:738-741 (2001)). Briefly, 3 to 4 cm of descending aorta was harvested from the donor and implanted between the renal arteries and the aortic bifurcation of the recipient. Both edges of the native abdominal aorta were ligated. Balloon injury model. Balloon angioplasty was carried out as described in Murakami et al. (Atherosclerosis 157:361-368 (2001)). Briefly, a 2 Fr. arterial embolectomy catheter (Baxter, Chicago, Ill.) was inserted into the common carotid artery, and injury was created by inflating the balloon to 5 atmospheres of pressure for 5 minutes. The arteries were flushed and the external carotid artery was ligated, ensuring return of blood flow through the common and internal carotid arteries. Injury of the vessel wall and subsequent pathological analysis was made in a manner that was blinded to the treatment group. CO exposure. CO was delivered to animals as described in Otterbein et al. (Nat. Med. 6:422-428 (2000)). Graft donors and recipients were exposed to CO (250 ppm) for two days before transplantation and for 56 days immediately following transplantation. In the balloon injury model, rats received either no pretreatment or were exposed to CO (250 ppm) for one hour prior to injury. Following surgery rats were housed in room air for two weeks. Cells. Primary mouse and rat smooth muscle cells (SMC) were isolated and cultured as described in Laubach et al. (Proc Natl Acad Sci USA 92:10688-9 (1995)). Mouse SMC isolated from HO-1^−/− mice were obtained as described in Duckers et al. (Nat. Med. 7:693-698 (2001)). Cell treatment and reagents. Guanylate cyclase inhibitor 1H(1,2,4) oxadiazolo(4,3-a)quinoxalin-1 (ODQ; Calbiochem-Novabiochem, San Diego, Calif.; 10-100 μM) and p38 MAPK inhibitor pyridinyl imidazol SB203580 (Calbiochem; 5-20 μM) were dissolved in DMSO. The cGMP analogue 8-bromo-cGMP sodium salt (8-Br-cGMP; Sigma-Aldrich, St. Louis, Mo.; 10-100 μM) and the PKG inhibitor (10-100 μM; Alexis Biochemicals) were dissolved in water. Cell counts and [^3H] thymidine incorporation. Rat and mouse SMC were isolated and cultured as described in Peyton et al. (Blood 99:4443-4448 (2002)). Proliferation assays were carried out as described in Petkova et al. (J Biol. Chem. 276:7932-7936 (2001)). For [^3H] thymidine incorporation studies, cells were serum-starved overnight and then stimulated with 10% serum containing 5 μCi/ml [^3H] thymidine (New England Nuclear, Boston Mass.). [^3H]thymidine incorporation was measured by scintillation spectroscopy and presented as mean counts/min/well. Histomorphometric analysis. Aortic grafts and carotid arteries were harvested at 56 and 14 days respectively. Vessels were fixed, embedded, and serially sectioned (5μ) in toto. Every third slide was stained with Hematoxylin and Eosin (H&E) for histomorphometric analyses. In both models, one or two images per slide at a resolution of 1520×1080 pixels were captured at a magnification of 25× with a Zeiss microscope (Axioskop, Iowa City, Iowa), RT color SPOT (Diagnostic Instrument, Inc., Saint Joseph, Mich.) and Windows NT (Compaq Computer) using Adobe Photoshop version 5.5 software. Areas from eight to ten captured images were calculated using digital imaging software as number of pixels corresponding to those areas. Twenty-four to forty-eight sections from each group were statistically analyzed with SPSS software version 10. Immunostaining and cell population histomorphometric analysis. […]
# p21Cip1 = assay: Western blot of p21Cip1 expression; type: cell-based, mouse
# Source text: as §2
# p38 MAPK = assay: Western blot of phosphorylated p38 MAPK in SMC; type: cell-based, mouse
# Source text: as §2, with “The cGMP analogue 8-bromo-cGMP sodium salt (8-Br-cGMP; Sigma-Aldrich, St. Louis, Mo.; 10-100 μM) and the PKG inhibitor (10-100 μM; Alexis Biochemicals) were dissolved in water. Cell counts and [^3H] thymidine incorporation. Rat and mouse SMC were isolated and cultured as described in Peyton et al. (Blood 99:4443-4448 (2002)). Proliferation assays were carried out as described in Petkova et al. (J Biol. Chem. 276:7932-7936 (2001)). For [^3H] thymidine incorporation studies, cells were serum-starved overnight and then stimulated with 10% serum containing 5 μCi/ml [^3H] thymidine (New England Nuclear, Boston Mass.).” left out, “Histomorphometric analysis. Aortic grafts and carotid arteries were harvested at 56 and 14 days respectively. Vessels were fixed, embedded, and serially sectioned (5μ) in toto. Every third slide was stained with Hematoxylin and Eosin (H&E) for histomorphometric analyses. In both models, one or two images per slide at a resolution of 1520×1080 pixels were captured at a magnification of 25× with a Zeiss microscope (Axioskop, Iowa City, Iowa), RT color SPOT (Diagnostic Instrument, Inc., Saint Joseph, Mich.) and Windows NT (Compaq Computer) using Adobe Photoshop version 5.5 software.” left out, “10.” for “10. Immunostaining and cell population histomorphometric analysis.”
smiles,measurement,setting,value
"[N]=O [NO, Nitric Oxide, reference compound]",Intimal thickening triggered by balloon injury,[1],did not modulate
same,Lethality,[2],lethal
"Nc1nc2c(nc(Br)n2[C@@H]2O[C@@H]3COP(=O)([O-])O[C@H]3[C@H]2O)c(=O)[nH]1.[Na+] [8-Br-cGMP, 8-Bromoguanosine 3′-5′-cyclic monophosphate sodium salt, reference compound]",Suppression of proliferation by the cGMP analogue,mouse SMC; SMC derived from p21-/- mice,impaired
same,SMC proliferation,mouse SMC; wild type SMC exposed to the cGMP analogue,suppressed
same,p21Cip1 expression,"p21Cip1; SMC exposed to the cGMP analogue, comparably to CO",increased
same,p38 MAPK activation,p38 MAPK; SMC exposed to the cGMP analogue,activated
"C[S+]([O-])c1ccc(-c2nc(-c3ccncc3)c(-c3ccc(F)cc3)[nH]2)cc1 (centres unmarked) [SB203580, reference compound]",Anti-proliferative effect of 8Br-cGMP in presence of p38 MAPK inhibitor,mouse SMC; 8Br-cGMP plus SB203580,abrogated
same,Anti-proliferative effect of CO in presence of p38 MAPK inhibitor,mouse SMC; CO 250 ppm plus SB203580,suppressed
same,Effects of CO on proliferation in presence of p38 MAPK inhibitor,"mouse SMC; SMC from p21-/- mice, CO 250 ppm plus SB203580",did not modulate
same,Ability of 8Br-cGMP to up-regulate expression of p21Cip1 in presence of p38 MAPK inhibitor,p21Cip1; 8Br-cGMP plus SB203580,suppressed
same,Ability of CO to up-regulate expression of p21Cip1 in presence of p38 MAPK inhibitor,p21Cip1; CO 250 ppm plus SB203580,blocked
"O=c1onc2cnc3ccccc3n12 [ODQ, 1H(1,2,4) oxadiazolo(4,3-a)quinoxalin-1, reference compound]",Ability of CO to suppress SMC proliferation under guanylate cyclase inhibition,mouse SMC; CO 250 ppm plus ODQ,impaired
same,Ability of CO to up-regulate p21Cip1 expression under guanylate cyclase inhibition,p21Cip1; CO plus ODQ,impaired
same,Activation of p38 MAPK by CO when cGMP generation is blocked,p38 MAPK; CO plus ODQ,abolished
